Measured values: ChEMBL document CHEMBL1671680, “Pradimicin S, a highly soluble nonpeptidic small-size carbohydrate-binding antibiotic, is an anti-HIV drug lead for both microbicidal and systemic use” (Antimicrob Agents Chemother, 2010)

Experiments:
PBMC = test: Cytotoxicity against human PBMC cells at 50 uM after 7 days; type: cell-based; conditions: 168 h
[1] = Cytotoxicity against human MT4 cells after 7 days by trypan blue staining; type: cell-based
[2] = tested on: Human immunodeficiency virus 1; test: Ratio of EC50 for compound pretreated HIV-1 3B isolate 42 harboring gp120 mutant infected in human CEM cells to EC50 for HIV-1 3B expressing wild type gp120; type: functional, CCRF-CEM

Compound | Activity (PBMC) [%] | CC50 at 168 h [1] [µM] | Ratio EC50 [2]
CN[C@@H]1[C@H](O[C@@H]2OC[C@@H](O)[C@H](O)[C@H]2O)[C@@H](O)[C@H](O[C@H]2c3cc(C)c(C(=O)N[C@H](C)C(=O)O)c(O)c3-c3c(cc4c(c3O)C(=O)c3cc(OC)cc(O)c3C4=O)[C@@H]2O)O[C@@H]1C [PRADIMICIN A] | > 95 | > 50 | –
CN[C@@H]1[C@H](O[C@@H]2O[C@H](CO)[C@@H](O)[C@H](OS(=O)(=O)O)[C@H]2O)[C@@H](O)[C@H](O[C@H]2c3cc(C)c(C(=O)N[C@H](C)C(=O)O)c(O)c3-c3c(cc4c(c3O)C(=O)c3cc(OC)cc(O)c3C4=O)[C@@H]2O)O[C@@H]1C [PRADIMICIN S] | – | – | >=20
